Reference: patent US20120010075A1 (priority 2009, published 2012)

Tests used:
Phytophthora infestans = assay type: in vivo, Phytophthora infestans on tomato; settings: hydrazone 50 ppm + 50 μM CuCl2.2H2O, applied 24 h before inoculation, assessed 7 days after inoculation, tomato
[1] = system: Leptosphaeria nodorum (LEPTNO); test: In vitro fungitoxicity of hydrazones with and without copper towards Leptosphaeria nodorum (Example 26); assay type: cell-based; settings: compound 0.05 μg/mL, 72 h at 25° C.; for inhibition of growth at 0.05 µg/mL: Parastagonospora nodorum, 72 h, copper-minus medium, read-out: LEPTNO % Inhn. Minus Copper Observed; for LEPTNO % Inhn. Plus Copper Observed: copper-plus medium (CuCl2.2H2O)

Compound	TLB % Control (Phytophthora infestans) [%]	inhibition of growth at 0.05 µg/mL [1] [%]	LEPTNO % Inhn. Plus Copper Observed [1] [%]	melting point [°C]
O=C(N/N=C/c1cc(Cl)cc(Cl)c1O)c1ccc(C(F)(F)F)cc1 [Example 81]	97.0	2.4	96.1	238 to 240
CCOc1cccc(C(=O)N/N=C/c2cc(Cl)cc(Cl)c2O)c1 [Example 86]	80.7	0.3	97.6	207 to 209
O=C(N/N=C/c1cc(Cl)cc(Cl)c1O)c1ccc2ccccc2c1 [Example 92]	71.9	1.9	98.2	215 to 217
CCOc1ccc(C(=O)N/N=C/c2cc(Cl)cc(Cl)c2O)cc1 [Example 97]	76.3	18.2	98.3	279 to 281
O=C(N/N=C/c1cc(Cl)cc(Cl)c1O)c1cc(Br)ccc1Cl [Example 98]	79.7	16.8	98.1	191 to 192
COc1cccc(C(=O)N/N=C/c2cc(Br)ccc2O)c1C [Example 105]	74.6	5.8	95.2	199 to 201
O=C(N/N=C/c1cc(Cl)cc(Br)c1O)c1ccc(OC(F)(F)F)cc1 [Example 106]	88.7	0	94.6	210 to 220
Cc1cc(C)cc(C(=O)N/N=C/c2cc(Br)ccc2O)c1 [Example 107]	74.6	0	97.2	191 to 195
COc1cccc(C(=O)N/N=C/c2cc(Br)cc(Br)c2O)c1C [Example 108]	50.9	21.3	97.6	188 to 189
Cc1cc(C)cc(C(=O)N/N=C/c2cc(Br)cc(Br)c2O)c1 [Example 110]	76.4	19.9	98.2	209 to 211
O=C(N/N=C/c1cc(Br)cc(Br)c1O)c1ccc2ccccc2c1 [Example 111]	63.6	16.8	97.4	237 to 239
O=C(N/N=C/c1cc(Br)cc(Br)c1O)c1cc(Cl)cc(Cl)c1 [Example 117]	89.5	28.8	98.5	267 to 269
COc1cccc(C(=O)N/N=C/c2cc(Cl)cc(Br)c2O)c1C [Example 132]	65.5	9.1	97.7	187 to 189
COc1cccc(C(=O)N/N=C/c2cc(Cl)ccc2O)c1C [Example 133]	71.9	8.8	98.5	122 to 128
Cc1cc(C)cc(C(=O)N/N=C/c2cc(Cl)ccc2O)c1 [Example 134]	57.0	4.2	95.3	196 to 199
C/C(=N\NC(=O)c1cccc(Br)c1)c1cc(Cl)cc(Cl)c1O [Example 138]	91.0	4	98.1	247 to 253
COc1ccccc1C(=O)N/N=C(\C)c1cc(Cl)cc(Cl)c1O [Example 141]	52.0	1.5	96.2	307 to 310

Compound	TLB % Control (Phytophthora infestans) [%]	inhibition of growth at 0.05 µg/mL [1] [%]	LEPTNO % Inhn. Plus Copper Observed [1] [%]	melting point [°C]
C/C(=N\NC(=O)c1ccccc1[N+](=O)[O-])c1cc(Cl)cc(Cl)c1O [Example 142]	79.0	1.1	98.2	250 to 253
O=C(N/N=C/c1cc(Cl)cc(Br)c1O)c1ccc(C(F)(F)F)cc1 [Example 164]	96.5	10.8	98.6	250 to 251
Cc1cccc(C(=O)N/N=C/c2cc(Cl)cc(Br)c2O)c1O [Example 165]	88.4	14.9	98.4	218 to 221
COc1cccc(C(=O)N/N=C/c2cc(Cl)cc(Br)c2O)c1 [Example 166]	71.9	2.6	97.9	166 to 168
Cc1cc(C)cc(C(=O)N/N=C/c2ccccc2O)c1 [Example 167]	67.3	0	95.8	203 to 205
Cc1cc(C)cc(C(=O)N/N=C/c2cc(Cl)cc(Br)c2O)c1 [Example 168]	59.6	13.3	97.7	223 to 226
O=C(N/N=C/c1cc(Br)ccc1O)c1ccc(C(F)(F)F)cc1 [Example 184]	70.9	7.1	97.0	219 to 222
O=C(N/N=C/c1cc(Br)ccc1O)c1cc(Cl)ccc1Cl [Example 186]	61.8	0	97.6	196 to 202
O=C(N/N=C/c1cc(Cl)ccc1O)c1cc(Cl)ccc1Cl [Example 189]	72.7	19.2	95.9	185 to 188
O=C(N/N=C/c1cc(Cl)cc(Br)c1O)c1cc(Cl)ccc1Cl [Example 196]	94.5	4.4	97.7	169 to 173
O=C(N/N=C/c1cc([N+](=O)[O-])cc(Br)c1O)c1cccc(Cl)c1 [Example 201]	50.9	4	96.0	276 to 280
Cc1cc(C)cc(C(=O)N/N=C/c2cc([N+](=O)[O-])cc(Br)c2O)c1 [Example 208]	32.8	5.4	97.0	283 to 300
COc1cc(Br)cc(/C=N/NC(=O)c2cc(C)cc(C)c2)c1O [Example 209]	67.3	17.6	95.9	189 to 193
Cc1cc(C)cc(C(=O)N(/N=C/c2cc(Cl)cc(Cl)c2O)C(C)(C)C)c1 [Example 211]	16.0	7	97.1	220 to 227
CC(C)(C)N(/N=C/c1ccccc1O)C(=O)c1ccccc1 [Example 217]	0.0	0	92.7	91 to 104
Cc1cccc(/C=N/NC(=O)c2ccccc2)c1O [Example 232]	57.6	2.3	97.5	186 to 188
Cc1ccc(/C=N/NC(=O)c2ccccc2)c(O)c1 [Example 234]	72.9	0	94.3	179 to 182
